Patent US12378296B2, “Glucagon analogues as long-acting GLP-1/glucagon receptor agonists in the treatment of fatty liver disease and steatohepatitis” (Boehringer Ingelheim International GmbH, priority 2020, dated 2025)

Assay: Pharmacokinetic parameters after intravenous administration to rats
Format: in vivo
Details: male, Han/Wistar, plasma, rat, i.v. 20 nmol/kg; for MRT: read-out: Mean Residence Time; for half-life: read-out: Terminal half-life (converted)
Method: Pharmacokinetic parameters of the test compounds were determined after intravenous administration to Han/Wistar rats. The acylated GLP-1 analogue semaglutide was also tested for comparison purposes.
Male Wistar rats were obtained from Charles River (Germany) weighing approximately 180 to 210 g at time of arrival at the test facility. Rats were caged in European standard rat cages type IV with light cycle of 12-hour dark and 12-hour light. During the study rats were housed in standard rat cages type III. Both diet Altromin 1324 (Altromin, Germany) and water was administered ad libitum during the whole experimental period. The animals were housed in the test facility for at least 4 days in order to assure proper acclimatization.
The compounds were first dissolved in 0.1% aqueous ammonia to a nominal concentration of 2 mg/ml, and then diluted to the desired dosing strength (10 μM) in sterile PBS containing 25 mM phosphate buffer, pH 7.4. Intravenous injections corresponding to 20 nmol/kg were given via a lateral tail vein.
Blood samples (200 μl) were collected from the periorbital plexus at time points 0.08, 0.25, 0.5, 1, 2, 4, 8, 24, 32 and 48 h post dosing into K3EDTA tubes and centrifuged for 5 minutes at 4° C. within 20 minutes of sampling. Plasma samples (>100 μl) were transferred to 96-well PCR plates, immediately frozen and kept at −20° C. until analysed for plasma concentration for the respective GLP-1-glucagon compound using LC-MS/MS. Individual plasma concentration-time profiles were analysed by a non-compartmental approach using ToxKin™ version 3.2 (Unilog IT Services), and the resulting pharmacokinetic parameters were determined.

Work on `CC[C@H](C)[C@H](NC(=O)[C@H](Cc1ccccc1)NC(=O)[C@H](CC(=O)O)NC(=O)[C@H](CCCCN)NC(=O)[C@H](C)NC(=O)[C@H](C)NC(=O)[C@H](CCCNC(=N)N)NC(=O)[C@H](CCC(=O)O)NC(=O)[C@H](CC(=O)O)NC(=O)[C@H](CC(C)C)NC(=O)[C@H](Cc1ccc(O)cc1)NC(=O)[C@H](CCCCN)NC(=O)[C@H](CO)NC(=O)[C@H](Cc1ccc(O)cc1)NC(=O)[C@H](CC(=O)O)NC(=O)[C@H](CO)NC(=O)[C@@H](NC(=O)[C@H](Cc1ccccc1)NC(=O)[C@@H](NC(=O)CNC(=O)[C@H](CCC(N)=O)NC(=O)C1(NC(=O)[C@@H](N)Cc2c[nH]cn2)CCC1)[C@@H](C)O)[C@@H](C)O)C(=O)N[C@@H](CCCCNC(=O)CNC(=O)CNC(=O)[C@H](CO)NC(=O)CNC(=O)[C@H](CO)NC(=O)CNC(=O)CC[C@H](NC(=O)CCCCCCCCCCCCCCCCC(=O)O)C(=O)O)C(=O)N[C@@H](Cc1c[nH]c2ccccc12)C(=O)N[C@@H](CC(C)C)C(=O)N[C@@H](CCC(=O)O)C(=O)N[C@@H](CO)C(=O)N[C@@H](C)C(N)=O` [Compound 5] yielded a clearance of 3.57 mL/h/kg, an MRT of 28.5 h and a half-life of 22.8 h.

`CC[C@H](C)[C@H](NC(=O)[C@H](Cc1ccccc1)NC(=O)[C@H](CC(=O)O)NC(=O)[C@H](CCCCN)NC(=O)[C@H](C)NC(=O)[C@H](C)NC(=O)[C@H](CCCNC(=N)N)NC(=O)[C@H](CCC(=O)O)NC(=O)[C@H](CC(=O)O)NC(=O)[C@H](CC(C)C)NC(=O)[C@H](Cc1ccc(O)cc1)NC(=O)[C@H](CCCCN)NC(=O)[C@H](CO)NC(=O)[C@H](Cc1ccc(O)cc1)NC(=O)[C@H](CC(=O)O)NC(=O)[C@H](CO)NC(=O)[C@@H](NC(=O)[C@H](Cc1ccccc1)NC(=O)[C@@H](NC(=O)CNC(=O)[C@H](CCC(N)=O)NC(=O)C1(NC(=O)[C@@H](N)Cc2c[nH]cn2)CCC1)[C@@H](C)O)[C@@H](C)O)C(=O)N[C@@H](CCC(=O)O)C(=O)N[C@@H](Cc1c[nH]c2ccccc12)C(=O)N[C@@H](CC(C)C)C(=O)N[C@@H](CCC(=O)O)C(=O)N[C@@H](CCCCNC(=O)CNC(=O)CNC(=O)[C@H](CO)NC(=O)CNC(=O)[C@H](CO)NC(=O)CNC(=O)CC[C@H](NC(=O)CCCCCCCCCCCCCCCCC(=O)O)C(=O)O)C(=O)N[C@@H](C)C(N)=O` [Compound 6] showed a clearance of 5.98 mL/h/kg, an MRT of 23.7 h and a half-life of 18.1 h.
